Test results taken from patent publication US20170172955A1, “Treatment of Mixed Dyslipidemia” (priority 2015, published 2017).
Like-named read-outs stand apart in the source and are kept apart here.

Assays:
[1] = system: cholesterol and triglyceride synthesis; experiment: Inhibition of plasma and hepatic cholesterol and triglyceride synthesis in apoB100/Lp(a) mice; type: in vivo, mouse
Protocol: The apoB100/Lp(a) (cross of mice transgenic for human apoB100 and human apo(a)) mice) were obtained from Charles River. There were 8 animals per treatment group. […] Mice were acclimated for a minimum of 7 days to a reverse 12 hour light/12 hour dark cycle prior to administration of the first dose of test drug or vehicle. […] Test drugs and vehicle were given once daily. Thirty minutes after the eighth dose, 12.5 μCi [^14C] sodium acetate was administered. […] Individual plasma samples were acquired by placing whole blood samples into EDTA loaded centrifuge tubes and centrifuged. Plasma was transferred to new tubes and stored at −20° C. until assayed for [^14C] labeled cholesterol. Liver samples were flash frozen in liquid nitrogen and stored at −80° C. until assayed for [^14C] labeled cholesterol and triglycerides. Assay for plasma [^14C] labeled cholesterol. […] Additionally, 0.025 μCi […] (Perkin Elmer Life Sciences Inc. Boston, Mass.) was added to each sample, and to 2 or 3 spike controls in 7-mL scintillation vials, as an extraction internal standard. […] Samples were vortexed and saponified at 75° C. for 1 hour. After the samples cooled […] [^14C] labeled cholesterol was extracted with 2.5 mL petroleum ether per sample and shaken for 10 minutes, and then centrifuged for 10 minutes at 0° C. […] Each sample was then dissolved in 0.25 mL of 2 parts chloroform to 1 part per methanol by sonication. Five mL scintillant was added to each sample and the spike controls for direct [^3H] and [^14C] […] per minute (DPM) recording using a Packard 2500TR Tri-Carb Liquid Scintillation Analyzer. […] Assay for liver [^14C] labeled cholesterol and triglycerides. Frozen liver samples were kept on dry ice during sample weighing procedures and assay preparations. Each sample was homogenized in a solution of ice-cold methanol;0.5 N acetic acid. […] Samples were then vortexed and centrifuged for 20 minutes at 3000 rpm at room temperature to separate the phases. The lower chloroform layer was transferred to new vials. The remaining upper aqueous phase was extracted in like manner with 15 mL chloroform 2 more times. […] The aqueous phase was discarded and the chloroform phase was washed 2 times in like manner with 15 mL 1 part methanol to 1 part water, discarding the aqueous phase. The chloroform samples were evaporated under nitrogen gas, and resuspended in 600 μL chloroform and 30 μL removed for scintillation counting. Sample volumes were adjusted for corrected percent recovery and a calculated volume to load based on total liver weight. Calculated volumes were spotted onto TLC plates and dried in an 80° C. oven. After the plates had cooled to room temperature, they were developed in 102 mL isooctane:diethyl ether:glacial acetic acid, 75:25:2, respectively. Plates were dried in an 80° C. oven and allowed to cool to room temperature, wrapped in plastic wrap, and exposed to the phosphorimager screen. Imagequant software was used to quantitate cholesterol and triglyceride bands.

CYP2C9 = CYP2C9 (Homo sapiens, UniProt P11712); experiment: biochemical
Chain of CYP2C9 (P11712 whole entry, canonical isoform): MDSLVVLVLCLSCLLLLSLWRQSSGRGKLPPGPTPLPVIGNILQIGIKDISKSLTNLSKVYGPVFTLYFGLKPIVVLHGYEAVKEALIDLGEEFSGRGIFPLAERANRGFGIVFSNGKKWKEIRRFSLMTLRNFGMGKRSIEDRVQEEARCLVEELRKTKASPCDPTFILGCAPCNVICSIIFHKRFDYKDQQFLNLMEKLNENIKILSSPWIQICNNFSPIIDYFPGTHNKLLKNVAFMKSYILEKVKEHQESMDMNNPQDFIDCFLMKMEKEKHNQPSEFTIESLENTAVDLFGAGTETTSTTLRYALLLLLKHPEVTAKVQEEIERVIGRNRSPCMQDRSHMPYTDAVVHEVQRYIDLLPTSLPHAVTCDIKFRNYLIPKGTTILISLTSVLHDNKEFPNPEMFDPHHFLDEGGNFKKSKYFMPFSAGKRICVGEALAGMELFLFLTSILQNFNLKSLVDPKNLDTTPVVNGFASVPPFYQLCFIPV
Protocol: Human livers, HLM141, HLM143, and HLM144 were selected from the University of Washington Human Liver Bank for this study. […] The actual concentrations used for each of the other probes are specified below. […] The seven isoforms and the metabolic pathway of each of the probes used to monitor specific isoform activity are listed below.
CYP2C9: The 7-hydroxylation of (S)-warfarin (4 μM). The reaction is monitored by quantitative GC/MS using 7-hydroxywarfarin-(d5-phenyl) as the internal standard.

[2] = 100 mg/kg oral once daily, 8 doses

CC(C)(CCCCOCCCCC(C)(C)C(=O)O)C(=O)O [Gemcabene, 6,6′-oxybis(2,2-dimethylhexanoic acid)]
inhibition of cholesterol synthesis as measured in plasma ([1]; 100 mg/kg): 60% | inhibition of newly synthesized cholesterol in liver tissue ([1]; 100 mg/kg): 65% | inhibition of newly synthesized triglycerides in liver tissue ([1]; 100 mg/kg): 66% | hepatic Cholesterol synthesis ([14C] sodium acetate), % Change from Vehicle [1, 2]: −65 ± 11 % | hepatic Triglycerides synthesis ([14C] sodium acetate), % Change from Vehicle [1, 2]: −66 ± 6 % | IC50 (CYP2C9): > 1500 µM | IC50 (CYP2C9; human, microsomes): > 1500 µM
